Laboratory results published in patent US12458629B2, “Method for treating nonsense mutation mediated duchenne muscular dystrophy in pediatric patients” (PTC THERAPEUTICS, INC., priority 2019, dated 2025).
“And” between values parts separate entries of the source, which are not always exact repeats. Identical values can stand only once. Like-named read-outs stand apart in the source and are kept apart here.

Assays:
[1] = test system: pediatric patients having nmDMD; assay: North Star Ambulatory Assessment (NSAA), 16-, 8- and 3-item, NCT02819557; format: in vivo, human
Text: Certain assessments on the NSAA 16-point scale were revised to reflect developmental stages for a pediatric patient population, e.g., “Lifts Head” was removed from the total, Items 3 and 8 on the NSAA scales were further revised to detect changes in the pediatric younger age group.^18,22 The same analysis was used for all subjects (n=14).
However, all patients were included in the baseline and week 52 assessments.

[2] = Ataluren plasma pharmacokinetics, NCT02819557 phase 2 open-label trial (LC-MS/MS); format: in vivo, human; conditions: for Cmax (0-6 hr) / concentration at 6 h / AUC(0-t) / Tmax: oral 10, 10, 20 mg/kg TID; for concentration at 6 h / AUC(0-t) / Tmax: male, human, plasma; for concentration at 6 h: oral, read-out: Ctrough-6 hr; for AUC(0-t) / Tmax: po, 20 mg/kg; for Tmax: read-out: tmax (0-6 hr)
Protocol: A total dose of 40 mg/kg/day study drug was administered as three divided doses per day. The first dose administered was: 10 mg/kg in the morning, the second dose administered was 10 mg/kg at midday, and the third dose administered was 20 mg/kg in the evening.
Evaluations included blood sampling for gene sequencing, blood sampling for ataluren PK, vital signs, height, weight, physical exam, hematology urinalysis, 12-lead ECG, palatability questionnaire, adverse events (AEs), concomitant medications and non-DMD-related Aes. For single-dose and steady-state plasma concentrations, blood samples were collected pre-dose and at 1, 2, 4, 6, 8, and 10 hours post-dose on Days 1 (Visit 2) and 28 (Visit 3). Ataluren plasma concentrations were determined using a validated liquid chromatography with tandem mass spectrometry (LC-MS/MS) method, with a lower limit of quantification (LOQ) of 0.500 μg/mL. Efficacy evaluations included TFTs and the NSAA, adapted as described below.
Observed values of plasma concentrations for ataluren were summarized at each visit and time point by dose level. Descriptive statistics (n, mean, standard deviation [SD], coefficient of variation [CV %], median, minimum, and maximum) and geometric means and their CV % were calculated. PK parameters (AUC0-6, AUC0-10, Cmax (0-6 hr) Ctrough (0-6 hr), t max (0-6 hr), accumulation ratio (AR) (AUC), AR (Cmax)) were derived using actual sampling and dosing times. Concentrations below the LOQ were set to zero for the calculation of non-compartmental analysis (NCA) parameters.

boys with nmDMD = conditions: boys about seven to about 16 years of age with nmDMD, Phase 3 NCT01826487; cited from earlier work
[3] = Effective plasma concentration range for maximum benefit by 6 minute walking distance (6 MWD); set-up: species or system human; conditions: in vivo
Protocol: As used herein, the term “therapeutically effective amount” refers to that amount of ataluren administered to a patient based on patient weight that is sufficient to attain an average plasma concentration in a range of at least about 1 μg/mL to about 20 μg/mL during a 24 hour time period.

[4] = test system: pediatric patients having nmDMD; assay: Timed function tests (TFTs), NCT02819557; format: in vivo, human; conditions: for decrease in mean time taken to descend 4 stairs (SD): 40 mg/kg/day
Protocol: For timed function tests (TFTs), results summarizing the baseline values (Study Day 1), post-baseline values, and the change from baseline values were analyzed separately for each of the 4 tests, including time taken to i). walk/run 10 meters, ii). Climb 4 stairs, iii). Descend 4 stairs, and iv). Stand from a supine position. The 10 m walk/run test was assessed once. If the time taken to perform a TFT exceeded 30 seconds or if a subject could not perform a TFT due to disease progression, a value of 30 seconds was set for the summary analysis. The time values in seconds were summarized using descriptive statistics: n, mean, SD, median, range, and 95% confidence intervals. Observed values, and changes from baseline in TFTs were summarized accordingly for the evaluable population.

[5] = Day 1 and Day 28, most subjects
[6] = Week 0 - Day 1, arithmetic mean, n=14
[7] = Week 4 - Day 28, arithmetic mean, n=14
[8] = Week 4 - Day 28 vs Day 1, arithmetic mean, n=14

Compound: O=C(O)c1cccc(-c2noc(-c3ccccc3F)n2)c1 [ataluren, 3-[5-(2-fluoro-phenyl)-[1,2,4]oxadiazol-3-yl]-benzoic acid]
- 3-item NSAA score, mean (SD) ([1]; Week 28, N=13): 5.8 (±0.38)
- 8-item NSAA score, mean (SD) ([1]; Week 28, N=13): 12.1 (+3.12)
- 16-item NSAA total score, mean (SD) ([1]; Week 28, N=13): 19.8 (±6.17) and 19.8 (6.17)
- 16-item NSAA total score, percent improvement over baseline ([1]; Week 28, N=13): 24.88% and 24.88 (27.203) %
- 3-item NSAA score, percent improvement over baseline ([1]; Week 28 vs baseline 5.4): 10.26%
- 8-item NSAA score, percent improvement over baseline ([1]; Week 28 vs baseline 10.5): 15.14%
- 16-item NSAA total score, improvement over baseline ([1]; Week 28 vs baseline 16.2, N=13): 3.5 (±3.43) points
- 3-item NSAA score, mean (SD) ([1]; Week 52, N=14): 5.6 (+0.63)
- 8-item NSAA score, mean (SD) ([1]; Week 52, N=14): 12.8 (+3.12)
- 16-item NSAA total score, mean (SD) ([1]; Week 52, N=14): 21.5 (±6.48) and 21.5 (6.48)
- 16-item NSAA total score, percent improvement over baseline ([1]; Week 52, N=14): 36.63% and 36.63 (29.956) %
- 3-item NSAA score, percent improvement over baseline ([1]; Week 52 vs baseline 5.4): 6.31%
- 8-item NSAA score, percent improvement over baseline ([1]; Week 52 vs baseline 10.5): 23.31%
- 16-item NSAA total score, improvement over baseline ([1]; Week 52 vs baseline 16.0, N=14): 5.5 (±4.43) points
- time of peak concentration post-morning dose (first peak) [2, 5]: approximately 2 hours
- time of peak concentration post-morning dose (second peak, 2 hours post midday dose) [2, 5]: ~8 h
- drug accumulation across doses ([2]; Day 28 vs Day 1): no apparent accumulation
- Cmax (0-6 hr) [2, 6]: 15950 ng/mL
- Cmax (0-6 hr) [2, 7]: 12540 ng/mL
- AR AUC0-6 (accumulation ratio) [2, 8]: 0.99
- AR Cmax (accumulation ratio) [2, 8]: 1.02
- concentration at 6 h [2, 6]: 9120 ng/mL
- concentration at 6 h [2, 7]: 5430 ng/mL
- AUC(0-t) ([2]; Week 0 - Day 1, arithmetic mean, n=14, boys ≥2 to <5 years with nmDMD, read-out: AUC0-6): 53000 ng·h/mL
- AUC(0-t) ([2]; Week 0 - Day 1, arithmetic mean, n=14, read-out: AUC0-10): 102000 ng·h/mL
- Tmax [2, 6]: 3.84 h
- AUC(0-t) ([2]; Week 4 - Day 28, arithmetic mean, n=14, read-out: AUC0-6): 43600 ng·h/mL
- AUC(0-t) ([2]; Week 4 - Day 28, arithmetic mean, n=14, read-out: AUC0-10): 82100 ng·h/mL
- Tmax [2, 7]: 2.72 h
- plasma levels and safety in the younger population relative to older children ([2]; ≥2 to <5 yrs vs ≥5 yrs nmDMD populations): similar
- tolerability (boys with nmDMD): generally well tolerated
- time post morning dose at which the effective plasma concentration range is typically found [3]: ≤ 2 h
- Timed Function Test assessments, change from baseline ([4]; all four TFTs over the 52-week study period): overall improvements from baseline
- mean reduction from baseline, 10 m walk/run time ([4]; week 28, 13 patients): 0.8 (±1.54) seconds
- mean percent improvement (SD), time to climb 4 stairs ([4]; week 28 vs baseline): 9.10 (±29.63) percent and 9.10 (29.630) percent
- mean percent improvement (SD), time to descend 4 stairs ([4]; week 28 vs baseline): 7.17 (±26.43) percent and 7.17 (26.433) percent
- mean percent improvement, 10 m walk/run ([4]; week 28 vs baseline): 8.35% and 8.35 (22.778) %
- reduction in mean time to climb 4 stairs ([4]; week 28 vs baseline, N=13): 1.8 (±4.85) seconds
- decrease in mean time taken to descend 4 stairs (SD) ([4]; week 28 vs mean baseline of 7.1 seconds, 12 patients): 0.6 (±1.93) seconds
- mean reduction from baseline, 10 m walk/run time ([4]; week 52, 14 patients): 1.1 (±1.35) seconds
- mean percent improvement (SD), time to climb 4 stairs ([4]; week 52 vs baseline): 23.36 (±26.25) percent and 23.36 (26.249) percent
- mean percent improvement (SD), time to descend 4 stairs ([4]; week 52 vs baseline): 24.22 (±28.32) percent and 24.22 (28.322) percent
- mean percent improvement, 10 m walk/run ([4]; week 52 vs baseline): 14.54% and 14.54 (14.862) %
- reduction in mean time to climb 4 stairs ([4]; week 52 vs baseline, N=14): 2.6 (±5.0) seconds
- decrease in mean time taken to descend 4 stairs (SD) ([4]; week 52 vs mean baseline of 7.5 seconds, 13 patients): 2.2 (±2.58) seconds
- mean improvement from baseline in stand from supine position assessment, week 28 compared with week 52 ([4]; weeks 28 (N=13) and 52 (N=14)): similar
